Measured values reported in patent US20230091561A1, “METHODS OF TREATING PRIMARY PROGRESSIVE MULTIPLE SCLEROSIS USING AN INHIBITOR OF BRUTON'S TYROSINE KINASE” (Genentech, Inc., priority 2020, published 2023).
Like-named read-outs stand apart in the source and are kept apart here.

Legend:
[1] = molecular target: BRK (Homo sapiens, UniProt Q13882); assay: Kinase selectivity IC50, BRK
[2] = molecular target: RET (Homo sapiens, UniProt P07949); assay: Kinase selectivity IC50, RET
[3] = molecular target: RIPK2 (Homo sapiens, UniProt O43353); assay: Kinase selectivity IC50, RIPK2
[4] = molecular target: MLK2 (Homo sapiens, UniProt Q02779); assay: Kinase selectivity IC50, MLK2
[5] = molecular target: T1, CDK8/cycC (Homo sapiens, UniProt P49336); assay: Kinase selectivity IC50, CDK8/cycC; assay type: biochemical; details: unpublished
T1 construct: purchased

[6] = molecular target: CSK (Homo sapiens, UniProt P41240); assay: Kinase selectivity IC50, CSK
[7] = molecular target: LCK (Homo sapiens, UniProt P06239); assay: Kinase selectivity IC50, LCK
[8] = molecular target: CK1e1 (Homo sapiens, UniProt P49674); assay: Kinase selectivity IC50, CK1e1
[9] = molecular target: FLT3 (Homo sapiens, UniProt P36888); assay: Kinase selectivity IC50, FLT3
[10] = molecular target: MKNK2 (Homo sapiens, UniProt Q9HBH9); assay: Kinase selectivity IC50, MKNK2
[11] = molecular target: T2, Fgr (Homo sapiens, UniProt P09769); assay: Kinase selectivity IC50, Fgr
[12] = molecular target: FGFR1 (Homo sapiens, UniProt P11362); assay: Kinase selectivity IC50, FGFR1
[13] = molecular target: T2, Fgr; design: purchased; details: footnote a (Crawford et al.); cited from earlier work
[14] = molecular target: T3, Src (Homo sapiens, UniProt P12931); design: purchased; details: footnote a (Crawford et al.); cited from earlier work
[15] = molecular target: ERBB2 (Homo sapiens, UniProt P04626); assay: Kinase selectivity IC50, ERBB2
[16] = molecular target: TXK (Homo sapiens, UniProt P42681); assay: Kinase selectivity IC50, TXK
[17] = molecular target: T3, Src; assay: Kinase selectivity IC50, Src
[18] = molecular target: BLK (Homo sapiens, UniProt P51451); assay: Kinase selectivity IC50, BLK
[19] = molecular target: FRK (Homo sapiens, UniProt P42685); assay: Kinase selectivity IC50, FRK
[20] = molecular target: T4, BMX (Homo sapiens, UniProt P51813); assay: Kinase selectivity IC50, BMX
[21] = molecular target: HCK (Homo sapiens, UniProt P08631); assay: Kinase selectivity IC50, HCK
[22] = molecular target: T4, BMX; assay: Covalent reaction (kinact/Ki), real-time competition with a fluorescent active site ligand, BMX
[23] = molecular target: LYN (Homo sapiens, UniProt P07948); assay: Kinase selectivity IC50, LYN
[24] = molecular target: SRM (Homo sapiens, UniProt Q9H3Y6); assay: Kinase selectivity IC50, SRM
[25] = molecular target: TNK2 (Homo sapiens, UniProt Q07912); assay: Kinase selectivity IC50, TNK2
[26] = molecular target: YES (Homo sapiens, UniProt P07947); assay: Kinase selectivity IC50, YES

T2 sequence (P09769 whole entry): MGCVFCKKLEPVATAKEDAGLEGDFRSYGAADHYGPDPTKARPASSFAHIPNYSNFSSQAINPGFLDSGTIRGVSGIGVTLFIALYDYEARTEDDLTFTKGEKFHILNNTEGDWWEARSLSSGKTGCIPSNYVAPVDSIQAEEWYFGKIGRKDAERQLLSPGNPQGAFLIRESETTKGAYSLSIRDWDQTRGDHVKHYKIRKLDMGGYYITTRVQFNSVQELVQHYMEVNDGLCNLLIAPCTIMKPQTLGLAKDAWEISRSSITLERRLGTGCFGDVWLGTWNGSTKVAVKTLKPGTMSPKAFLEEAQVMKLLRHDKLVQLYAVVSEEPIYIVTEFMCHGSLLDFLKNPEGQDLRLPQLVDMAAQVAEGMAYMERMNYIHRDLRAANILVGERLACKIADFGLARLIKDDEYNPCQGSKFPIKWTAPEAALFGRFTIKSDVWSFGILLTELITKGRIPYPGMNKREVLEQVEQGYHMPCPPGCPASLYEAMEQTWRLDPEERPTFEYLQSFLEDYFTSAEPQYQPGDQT
RIPK2, sequence (O43353 whole entry): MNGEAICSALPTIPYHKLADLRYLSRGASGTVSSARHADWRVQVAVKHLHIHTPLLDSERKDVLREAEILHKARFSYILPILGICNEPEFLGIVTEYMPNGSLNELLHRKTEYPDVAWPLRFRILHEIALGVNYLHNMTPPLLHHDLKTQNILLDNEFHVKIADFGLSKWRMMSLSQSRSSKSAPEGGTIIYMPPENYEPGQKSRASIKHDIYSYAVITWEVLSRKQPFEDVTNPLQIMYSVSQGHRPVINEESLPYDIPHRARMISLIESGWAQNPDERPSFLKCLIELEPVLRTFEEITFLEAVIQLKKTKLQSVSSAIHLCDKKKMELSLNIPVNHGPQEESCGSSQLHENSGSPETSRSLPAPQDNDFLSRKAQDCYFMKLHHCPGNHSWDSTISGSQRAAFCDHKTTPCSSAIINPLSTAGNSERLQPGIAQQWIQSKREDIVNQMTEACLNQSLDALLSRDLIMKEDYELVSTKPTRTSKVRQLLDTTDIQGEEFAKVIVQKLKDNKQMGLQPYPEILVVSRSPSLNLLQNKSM
T4 sequence (P51813 whole entry): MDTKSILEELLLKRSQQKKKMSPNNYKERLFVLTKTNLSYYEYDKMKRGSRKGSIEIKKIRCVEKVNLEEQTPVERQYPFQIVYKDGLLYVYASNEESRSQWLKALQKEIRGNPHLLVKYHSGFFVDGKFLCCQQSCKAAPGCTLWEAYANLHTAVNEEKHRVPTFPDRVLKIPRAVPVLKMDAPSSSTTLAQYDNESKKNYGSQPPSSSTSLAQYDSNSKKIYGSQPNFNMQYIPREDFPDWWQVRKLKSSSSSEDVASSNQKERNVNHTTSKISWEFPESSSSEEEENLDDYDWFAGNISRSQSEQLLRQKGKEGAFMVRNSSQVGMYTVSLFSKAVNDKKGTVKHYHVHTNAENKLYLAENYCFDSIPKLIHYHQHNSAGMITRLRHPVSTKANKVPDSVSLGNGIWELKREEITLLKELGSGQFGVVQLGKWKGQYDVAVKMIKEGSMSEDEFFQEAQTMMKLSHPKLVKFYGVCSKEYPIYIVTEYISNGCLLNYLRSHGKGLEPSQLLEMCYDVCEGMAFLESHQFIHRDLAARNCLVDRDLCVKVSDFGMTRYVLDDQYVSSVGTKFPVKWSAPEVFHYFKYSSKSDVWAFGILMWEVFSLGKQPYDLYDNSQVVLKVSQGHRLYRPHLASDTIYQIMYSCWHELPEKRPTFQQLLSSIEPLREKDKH
CSK, sequence (P41240 whole entry): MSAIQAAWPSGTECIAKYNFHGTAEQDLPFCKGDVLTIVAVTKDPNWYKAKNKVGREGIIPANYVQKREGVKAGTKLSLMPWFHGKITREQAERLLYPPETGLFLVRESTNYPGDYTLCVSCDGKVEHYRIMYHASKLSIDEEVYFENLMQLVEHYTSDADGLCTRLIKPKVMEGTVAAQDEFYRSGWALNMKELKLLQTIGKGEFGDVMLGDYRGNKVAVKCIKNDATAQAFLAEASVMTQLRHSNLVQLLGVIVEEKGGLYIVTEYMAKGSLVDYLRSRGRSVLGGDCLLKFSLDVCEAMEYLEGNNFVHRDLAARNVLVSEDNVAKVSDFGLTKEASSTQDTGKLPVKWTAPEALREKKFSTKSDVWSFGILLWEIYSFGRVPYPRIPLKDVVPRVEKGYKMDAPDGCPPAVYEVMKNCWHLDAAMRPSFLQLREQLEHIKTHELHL
BRK, sequence (Q13882 whole entry): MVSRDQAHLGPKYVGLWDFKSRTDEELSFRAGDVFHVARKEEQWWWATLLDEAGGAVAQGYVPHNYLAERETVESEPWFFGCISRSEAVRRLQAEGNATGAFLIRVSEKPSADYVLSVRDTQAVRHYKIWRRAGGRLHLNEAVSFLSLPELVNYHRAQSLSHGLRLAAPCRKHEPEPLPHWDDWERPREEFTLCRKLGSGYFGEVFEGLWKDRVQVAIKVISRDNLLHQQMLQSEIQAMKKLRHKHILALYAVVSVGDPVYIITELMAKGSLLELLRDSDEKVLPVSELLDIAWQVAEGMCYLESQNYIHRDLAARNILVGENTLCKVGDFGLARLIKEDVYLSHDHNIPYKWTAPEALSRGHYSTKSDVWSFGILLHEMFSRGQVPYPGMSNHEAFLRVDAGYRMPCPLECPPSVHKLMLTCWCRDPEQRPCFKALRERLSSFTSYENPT
T3 sequence (P12931 whole entry): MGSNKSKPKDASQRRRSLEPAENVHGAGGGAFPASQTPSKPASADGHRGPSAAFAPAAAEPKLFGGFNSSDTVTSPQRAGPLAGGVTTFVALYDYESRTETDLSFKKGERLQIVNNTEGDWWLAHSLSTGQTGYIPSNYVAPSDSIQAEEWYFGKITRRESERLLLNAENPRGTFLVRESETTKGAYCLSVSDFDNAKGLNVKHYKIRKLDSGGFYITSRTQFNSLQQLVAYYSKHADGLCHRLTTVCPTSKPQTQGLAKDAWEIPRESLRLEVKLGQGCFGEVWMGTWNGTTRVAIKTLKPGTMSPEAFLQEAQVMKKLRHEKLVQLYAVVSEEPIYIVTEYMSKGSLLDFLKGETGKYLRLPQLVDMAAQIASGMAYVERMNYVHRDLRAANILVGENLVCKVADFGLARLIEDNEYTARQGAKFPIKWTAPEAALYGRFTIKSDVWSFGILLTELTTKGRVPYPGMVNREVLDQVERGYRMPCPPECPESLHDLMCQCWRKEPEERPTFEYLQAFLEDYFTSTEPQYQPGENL
HCK, sequence (P08631 whole entry): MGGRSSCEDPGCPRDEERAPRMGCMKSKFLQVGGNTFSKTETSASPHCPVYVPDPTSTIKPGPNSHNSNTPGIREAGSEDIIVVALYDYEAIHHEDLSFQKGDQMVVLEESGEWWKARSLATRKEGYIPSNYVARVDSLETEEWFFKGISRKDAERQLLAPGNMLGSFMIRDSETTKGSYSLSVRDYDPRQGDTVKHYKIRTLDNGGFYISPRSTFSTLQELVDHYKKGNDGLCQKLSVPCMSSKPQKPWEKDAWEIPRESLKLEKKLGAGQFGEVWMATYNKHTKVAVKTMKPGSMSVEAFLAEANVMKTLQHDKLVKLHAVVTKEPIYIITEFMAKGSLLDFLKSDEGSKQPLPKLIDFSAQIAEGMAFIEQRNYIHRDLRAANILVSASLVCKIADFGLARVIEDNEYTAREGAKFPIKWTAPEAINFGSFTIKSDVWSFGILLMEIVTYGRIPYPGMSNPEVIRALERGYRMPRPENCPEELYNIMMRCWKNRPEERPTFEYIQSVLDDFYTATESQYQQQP
TXK, sequence (P42681 whole entry): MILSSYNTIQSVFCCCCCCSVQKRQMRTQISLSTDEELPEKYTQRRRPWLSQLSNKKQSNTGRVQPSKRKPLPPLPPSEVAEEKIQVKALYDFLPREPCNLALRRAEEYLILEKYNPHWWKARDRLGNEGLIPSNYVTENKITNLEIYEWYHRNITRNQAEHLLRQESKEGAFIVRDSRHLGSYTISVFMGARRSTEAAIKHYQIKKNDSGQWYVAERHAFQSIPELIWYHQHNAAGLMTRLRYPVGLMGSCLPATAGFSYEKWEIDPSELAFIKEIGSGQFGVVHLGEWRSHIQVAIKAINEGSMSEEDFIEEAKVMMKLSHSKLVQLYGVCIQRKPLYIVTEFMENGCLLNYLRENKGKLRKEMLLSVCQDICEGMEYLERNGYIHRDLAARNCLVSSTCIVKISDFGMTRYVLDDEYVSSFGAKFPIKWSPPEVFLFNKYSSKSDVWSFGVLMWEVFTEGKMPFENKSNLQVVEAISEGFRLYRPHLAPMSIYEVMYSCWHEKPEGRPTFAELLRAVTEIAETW
T1 sequence (P49336 whole entry): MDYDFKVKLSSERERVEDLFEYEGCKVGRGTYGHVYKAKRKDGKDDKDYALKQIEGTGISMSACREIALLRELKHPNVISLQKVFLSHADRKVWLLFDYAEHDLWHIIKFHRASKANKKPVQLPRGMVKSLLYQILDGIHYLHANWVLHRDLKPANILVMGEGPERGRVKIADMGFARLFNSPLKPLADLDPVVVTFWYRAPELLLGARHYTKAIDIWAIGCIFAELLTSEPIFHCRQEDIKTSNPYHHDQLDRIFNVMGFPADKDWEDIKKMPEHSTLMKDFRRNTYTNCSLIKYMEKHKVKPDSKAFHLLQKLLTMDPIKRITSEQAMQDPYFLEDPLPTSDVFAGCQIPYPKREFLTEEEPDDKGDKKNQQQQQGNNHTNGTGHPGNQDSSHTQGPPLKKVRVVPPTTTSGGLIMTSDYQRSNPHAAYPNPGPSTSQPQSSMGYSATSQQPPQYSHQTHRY
T1 sequence (P24863 whole entry partner): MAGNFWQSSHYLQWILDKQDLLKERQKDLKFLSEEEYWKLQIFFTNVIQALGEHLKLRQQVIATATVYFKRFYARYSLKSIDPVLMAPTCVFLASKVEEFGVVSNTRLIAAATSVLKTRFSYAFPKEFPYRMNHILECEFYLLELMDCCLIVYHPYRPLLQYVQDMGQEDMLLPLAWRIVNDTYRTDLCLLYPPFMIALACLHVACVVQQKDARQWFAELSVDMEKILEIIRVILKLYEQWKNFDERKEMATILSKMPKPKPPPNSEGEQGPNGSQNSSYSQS

**Q.** What does the source list for `C=CC(=O)N1CCC(CNc2ncnc(N)c2-c2ccc(Oc3ccccc3)cc2)CC1` [Evobrutinib]?
**A.** IC50 [1]: 6020 nM; IC50 [2]: 8630 nM; IC50 [3]: 4330 nM; IC50 [4]: 3980 nM; IC50 [5]: 3500 nM; IC50 [6]: 7820 nM; IC50 [7]: 3800 nM; IC50 [8]: 1450 nM; IC50 [9]: 2250 nM; IC50 [10]: 4130 nM; IC50 [11]: 2330 nM; IC50 [12]: 4150 nM

**Q.** For `C[C@H]1CN(C2COC2)CCN1c1ccc(Nc2cc(-c3ccnc(N4CCn5c(cc6c5CC(C)(C)C6)C4=O)c3CO)cn(C)c2=O)nc1` [Fenebrutinib], which IC50 [13] is on record?
**A.** Its IC50 is 387 nM.

**Q.** What about the IC50 [14] of the same compound?
**A.** The IC50 was 302 nM.

**Q.** What does the source list for `C=CC(=O)N1CCC[C@@H](n2c(=O)n(-c3ccc(Oc4ccccc4)cc3)c3c(N)nccc32)C1` [Tolebrutinib]?
**A.** IC50 [1]: 44 nM; IC50 [15]: 25 nM; IC50 [16]: 3.9 nM; IC50 [17]: 54 nM; IC50 [3]: 125 nM; IC50 [18]: 3 nM; IC50 [6]: 87 nM; IC50 [19]: 231 nM; IC50 [20]: 2.5 nM; IC50 [21]: 91 nM; IC50 [11]: 33 nM; Ki [22]: 42 nM; IC50 [23]: 194 nM; IC50 [24]: 116 nM; IC50 [25]: 847 nM; IC50 [26]: 16 nM
